Test results published in US20150315188A1, “COMPOUNDS AND METHODS FOR TREATMENT OF HYPERTENSION” (MEDIVATION TECHNOLOGIES, INC., priority 2012, published 2015).
Read-outs that look alike come from different tables or passages of the source.

Columns and labels:
[1] = biological target: T1, Human adrenergic α2B receptor (Homo sapiens, UniProt P18089); assay: Radioligand binding, adrenergic α2B (Protocol Group B); parameters: purchased Milipore (Millipore); conditions: Protocol Group B; for Percentage inhibition of ligand binding, Adrenergic α2B (10 nM): 0.01 µM; for Percentage inhibition of ligand binding, Adrenergic α2B (30 nM): 0.03 µM; for Ki: estimated Ki
T1 sequence (P18089 1-450): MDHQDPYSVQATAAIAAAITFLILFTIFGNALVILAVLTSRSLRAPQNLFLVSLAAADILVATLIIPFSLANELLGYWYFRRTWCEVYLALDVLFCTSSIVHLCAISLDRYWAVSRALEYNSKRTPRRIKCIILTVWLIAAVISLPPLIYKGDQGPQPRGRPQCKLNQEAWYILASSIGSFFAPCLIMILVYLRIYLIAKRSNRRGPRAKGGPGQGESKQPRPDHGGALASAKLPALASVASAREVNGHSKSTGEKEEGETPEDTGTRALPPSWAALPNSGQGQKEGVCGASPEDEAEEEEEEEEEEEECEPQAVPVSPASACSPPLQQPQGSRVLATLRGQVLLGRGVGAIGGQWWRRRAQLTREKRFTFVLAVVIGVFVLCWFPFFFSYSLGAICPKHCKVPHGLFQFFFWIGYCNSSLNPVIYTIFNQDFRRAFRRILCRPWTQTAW
Summary of the method: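 Recombinant human α2B receptor membranes incubated with compounds in 50 mM Tris-HCl pH 7.4, 5 mM MgCl2, 1 mM CaCl2, 0.2% BSA, 1% DMSO vehicle. Non-specific binding defined with 10 μM rauwolscine. Values are percent inhibition of specific binding or estimated Ki.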

[2] = biological target: T2, Human adrenergic α2A receptor (Homo sapiens, UniProt P08913); assay: β-Arrestin GPCR functional assay, adrenergic α2A (Protocol B); format: cell-based; conditions: β-arrestin, antagonist vs nor-epinephrine EC80
T2 sequence (P08913 1-465): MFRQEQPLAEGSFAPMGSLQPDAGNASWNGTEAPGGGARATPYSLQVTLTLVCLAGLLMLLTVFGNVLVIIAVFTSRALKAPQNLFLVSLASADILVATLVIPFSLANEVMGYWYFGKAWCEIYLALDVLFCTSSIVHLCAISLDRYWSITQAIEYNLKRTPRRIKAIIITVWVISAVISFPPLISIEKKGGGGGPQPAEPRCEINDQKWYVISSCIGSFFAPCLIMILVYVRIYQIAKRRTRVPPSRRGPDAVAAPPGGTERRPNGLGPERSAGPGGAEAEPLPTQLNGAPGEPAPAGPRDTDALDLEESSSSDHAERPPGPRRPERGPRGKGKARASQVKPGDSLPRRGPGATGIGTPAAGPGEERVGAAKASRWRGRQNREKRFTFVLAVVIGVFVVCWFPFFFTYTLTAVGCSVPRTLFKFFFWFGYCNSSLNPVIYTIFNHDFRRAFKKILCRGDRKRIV
Procedure: (§1) To evaluate the activity of compounds in β-Arrestin GPCR functional assays, recombinant CHO cell line (DiscoveRX), over expressed with human adrenergic α2A receptor were used. The experiment was done with kit of DiscoveRX as per recommended protocol of the supplier. Cells were harvested from culture flask using cell dissociation solution (CDS) and plated at a density of 12,000 cells/well in CP reagent (supplied with the kit) in a half area 96-well white polystyrene plate. After 24 h incubation at 37° C., compounds at various concentrations in 1% (final) DMSO were charged to the cells for 30 min at 37° C. Active nor-epinephrine (-NE) at its EC80 concentrations (270 nM) were then added to the cells and incubated for another 90 min at 37° C. Detection mix was prepared by mixing of Path Hunter cell assay buffer, Emerald II solution and Galactone star solution in a ratio of 19:5:1 and incubated with the cells for 60 min at RT in the dark. The reading was taken in Envision at luminescence mode. Biochemical assay results are presented as the percent Inhibition in Table B2a, or IC50 values in Table B2b.

[3] = biological target: T1, Human adrenergic α2B receptor; assay: β-Arrestin GPCR functional assay, adrenergic α2B (Protocol B); format: cell-based; conditions: β-arrestin, antagonist vs nor-epinephrine EC80
Procedure: as §1, with “α2B” for “α2A”, “(50” for “(270”

[4] = biological target: T2, Human adrenergic α2A receptor; assay: Radioligand binding, adrenergic α2A (Protocol Group B); parameters: purchased Milipore (Millipore); conditions: Protocol Group B; for Ki: estimated Ki
Summary of the method: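 Membranes from recombinant cells expressing the receptor, in 50 mM Tris-HCl pH 7.4 with 5 mM MgCl2, 1 mM CaCl2, 0.2% BSA; compounds incubated with 2 nM [^3H]MK-912 for 60 min at 25° C. Nonspecific binding defined by 10 μM rauwolscine; filtration, counting; percent inhibition of specific binding, or estimated Ki.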

[5] = biological target: T3, Human adrenergic α1B receptor (Homo sapiens, UniProt P35368); assay: Radioligand binding, adrenergic α1B (Protocol Group B); parameters: purchased Milipore (Millipore); conditions: Protocol Group B; for Percentage inhibition of ligand binding, Adrenergic α1B (0.3 μM) / inhibition at 0.3 µM: 0.3 μM compound; for inhibition at 0.3 µM: read-out: Percentage inhibition of ligand binding, Adrenergic α1B (0.3 μM)
T3 sequence (P35368 1-520): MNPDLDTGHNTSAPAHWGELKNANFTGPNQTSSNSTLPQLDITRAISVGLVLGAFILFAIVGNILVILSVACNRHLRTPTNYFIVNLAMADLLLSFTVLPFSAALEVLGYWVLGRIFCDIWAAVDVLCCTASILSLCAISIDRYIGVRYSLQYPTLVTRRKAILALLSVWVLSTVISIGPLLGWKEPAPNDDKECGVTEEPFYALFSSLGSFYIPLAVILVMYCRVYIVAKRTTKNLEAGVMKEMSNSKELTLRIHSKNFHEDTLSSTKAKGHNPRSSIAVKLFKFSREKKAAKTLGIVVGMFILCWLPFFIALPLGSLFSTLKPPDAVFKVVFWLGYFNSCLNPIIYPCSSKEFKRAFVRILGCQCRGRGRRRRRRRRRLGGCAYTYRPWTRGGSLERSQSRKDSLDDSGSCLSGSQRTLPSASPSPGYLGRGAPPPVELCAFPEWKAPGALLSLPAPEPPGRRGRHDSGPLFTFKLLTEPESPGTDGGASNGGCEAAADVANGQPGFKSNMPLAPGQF
Summary of the method: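 Recombinant human α1B membranes incubated with test compound and 0.3 nM [3H]prazosin, 60 min at 25 °C, in 50 mM Tris-HCl pH 7.4, 10 mM MgCl2, 1 mM EDTA; nonspecific binding with 10 μM prazosin. Filter-bound radioactivity counted; values are % inhibition of specific binding or estimated Ki.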

| SMILES | Percentage inhibition of ligand binding, Adrenergic α2B (10 nM) ([1]; 10 nM compound) | Percentage inhibition of ligand binding, Adrenergic α2B (30 nM) ([1]; 30 nM compound) | IC50 ([3]; read-out: IC50 Adrenergic α2B) | Percentage inhibition of ligand binding, Adrenergic α2A (0.1 μM) ([4]; 0.1 μM compound) | Percentage inhibition of ligand binding, Adrenergic α2A (0.3 μM) ([4]; 0.3 μM compound) | Percentage inhibition of ligand binding, Adrenergic α1B (0.1 μM) ([5]; 0.1 μM compound) | Percentage inhibition of ligand binding, Adrenergic α1B (0.3 μM) [5] | Ki ([1]; read-out: Ki α2B) | other results |
| --- | --- | --- | --- | --- | --- | --- | --- | --- | --- |
| Cc1ccc2c(c1)c1c(n2CC(C)(O)c2cccnc2)CC2CCCN2C1 (single isomer, unassigned) [38c] | 43% | 71% | 364 nM | 7% | 31% | 2% | 23% | – | Percentage inhibition of ligand binding, Adrenergic α2B (0.1 μM) ([1]; 0.1 μM compound, 0.1 µM): 92%; IC50 [2]: 7820 nM |
| CC(O)(Cn1c2c(c3cc(F)cc(Cl)c31)C1CCCN1CC2)c1ccncc1 (single isomer, unassigned) [88a] | – | – | 388 nM | 52% | 72% | 15% | – | 1.45 nM | inhibition at 0.01 µM ([1]; 10 nM compound, read-out: Percentage inhibition of ligand binding, Adrenergic α2B (10 nM)): 86%; inhibition at 0.03 µM ([1]; 30 nM compound, read-out: Percentage inhibition of ligand binding, Adrenergic α2B (30 nM)): 93%; Ki [4]: 43.9 nM; inhibition at 0.3 µM [5]: 43% |
| CC(O)(Cn1c2c(c3cc(F)cc(Cl)c31)C1CCCN1CC2)c1ccncc1 (single isomer, unassigned) [88b] | 70% | 90% | 166 nM | 19% | 44% | −1% | 33% | 2.85 nM | – |
| CC(O)(Cn1c2c(c3cc(F)cc(Cl)c31)C1CCCN1CC2)c1cccnc1 (single isomer, unassigned) [89c] | 54% | 78% | 45.5 nM | 24% | 40% | 0% | 22% | 7.6 nM | – |
| CC(O)(Cn1c2c(c3cc(F)cc(Cl)c31)C1CCCN1CC2)c1cccnc1 (single isomer, unassigned) [89d] | 104% | 115% | – | 74% | 99% | 15% | 54% | 0.85 nM | IC50 [2]: 1970 nM; Ki [4]: 26.2 nM |
| Cc1ccc2c(c1)c1c(n2CC(C)(O)c2ccc(F)cc2)CC2CCC1N2C (single isomer, unassigned) [102b] | – | – | – | – | – | – | – | – | Ki ([1]; Ki α2B): 19.3 nM; inhibition at 0.01 µM ([1]; read-out: Percentage inhibition of ligand binding, Adrenergic α2B (10 nM), 10 nM compound): 28%; inhibition at 0.03 µM ([1]; read-out: Percentage inhibition of ligand binding, Adrenergic α2B (30 nM), 30 nM compound): 56%; inhibition at 0.1 µM ([1]; read-out: Percentage inhibition of ligand binding, Adrenergic α2B (0.1 μM), 0.1 μM compound): 70%; IC50 ([3]; IC50 Adrenergic α2B): 412 nM; inhibition at 0.1 µM ([4]; 0.1 μM compound, read-out: Percentage inhibition of ligand binding, Adrenergic α2A (0.1 μM)): -1%; inhibition at 0.3 µM ([4]; 0.3 μM compound, read-out: Percentage inhibition of ligand binding, Adrenergic α2A (0.3 μM)): 23%; inhibition at 0.1 µM ([5]; 0.1 μM compound, read-out: Percentage inhibition of ligand binding, Adrenergic α1B (0.1 μM)): 5%; inhibition at 0.3 µM [5]: 26% |
| Cc1cc(F)cc2c3c(n(CC(O)c4ccncc4)c12)CCN1CCCC31 (single isomer, unassigned) [136b] | 76% | 96% | 68.3 nM | 45% | 72% | 24% | 63% | 2.45 nM | – |
